In assay [1] the test system is K562 cells. The experiment in a line: Intracellular uptake of FAM-labelled oligonucleotides, fluorescence microscopy. The assay is classed as cell-based, human. The following applies: FAM-conjugated, 1 µM, 24 h.
Another assay relates to myc-Lin28A. Briefly: Ubiquitination assay of myc-Lin28A in 22Rv1 cells. The assay is classed as cell-based. As to conditions: HA-Ub co-transfected, 500 nM, 48 h, anti-HA western blot after cMyc IP. Here is the method:
(§1) Next, we investigated the ability of ORN3P1 and ORN7P1 to mediate ubiquitination of Lin28 in cells, using a previously described protocol. ^[32] Cells from the prostate cancer cell line 22RV1, which express very low levels of Lin28, were co‐transfected with two plasmids expressing pCMV‐myc‐Lin28A and HA‐tagged polyubiquitin (HA‐Ub).
(§2) After 48 h of incubation with ORN3P1 and ORN7P1, the tagged Lin28 (and the control QKI) was immunoprecipitated using an anti‐Myc antibody. The isolated protein was then analyzed by western blotting using the anti‐HA and anti‐c‐Myc antibodies. Consistent with other previously described PROTAC reagents,[ ^32 , ^33 ]
(§3) The protein extracts (12-17 µg) were run on a 4-20% SDS-PAGE and transferred on a nitrocellulose blotting membrane 0.22 µm (GE Healthcare) using the Trans-Blot transfer device (Biorad). Membranes were blocked with 5% milk and incubated with the primary antibody overnight at 4 °C. Membranes were washed with 0.05% PBS-T and reacted with the secondary antibody for 1 h in 5% milk. The proteins were detected using the anti-lin28a antibody (Cell Signaling technology, D9F5), anti-lin28b antibody (Cell Signaling technology, 4196S), anti-rbfox1 (NovusBio, NBP2-13169SS), at 1:1000 and anti-hrnp c antibody […]
(§4) (Abcam, AB133607) at 1:10000 dilutions. […]
(§5) on a ChemiDoc MP imager (Biorad). The intensity of the signal was quantified using the ImageJ-Fiji software. […]
In general terms: A western blot detects proteins with antibodies after separation by electrophoresis.

The next assay deals with QKI (pDEST-Myc-QKI). The experiment in a line: Ubiquitination assay of Myc-QKI (negative control RBP) in 22Rv1 cells. As to conditions: pDEST-Myc-QKI and HA-Ub, 500 nM, 48 h. It is filed as cell-based. The procedure:
as §1, §2, §3, §4, §5

The subject of assay [2] is Lin28A. Briefly: Western blot of Lin28A in NT2/D1 cells. It is filed as cell-based, human. As to conditions: 2 μM, three independent experiments. The source says: Finally, we tested RNA‐PROTACs for their ability to degrade their target in two cell lines: the embryonic NT2/D1 cell line, which expresses high levels of Lin28A, ^[13a] and K562 cells which express Lin28A and Lin28B. […] Finally, we co‐treated K562 cells with ORN3P1 and MG132, a reversible inhibitor of the 26S proteasome. […] In order to explore the versatility of RNA‐PROTACs with non peptide‐based VHL ligands, we conjugated small‐molecule VH032 ^[38] to ORN3 via an amino linker to yield ORN3VH032 (Figure S1). […]

Assay [3] has as its system Lin28A. Briefly: Confocal microscopy, LIN28A level in K562 cells. The assay is classed as cell-based, human. As to conditions: FAM labelled ORN3P1, 1 µM, 24 h.
The subject of assay [4] is K562 cells. The experiment in a line: Confocal microscopy, intracellular localization in K562 cells. It is filed as cell-based, human. As to conditions: FAM labelled ORN3P1, 1 µM, 24 h.

On to `CC[C@H](C)[C@H](NC(=O)[C@H](Cc1ccc(O)cc1)NC(=O)[C@@H]1C[C@@H](O)CN1C(=O)[C@H](C)NC(=O)[C@H](CC(C)C)NC(=O)CCCCCNC(=O)[C@@H](N)CSC1CC(=O)N(CCOP(=O)(S)OC[C@H]2O[C@@H](n3cnc4c(N)ncnc43)[C@H](OCCOC)[C@@H]2OP(=O)(S)OC[C@H]2O[C@@H](n3cnc4c(=O)[nH]c(N)nc43)[C@H](OCCOC)[C@@H]2OP(=O)(S)OC[C@H]2O[C@@H](n3cnc4c(=O)[nH]c(N)nc43)[C@H](OCCOC)[C@@H]2OP(=O)(S)OC[C@H]2O[C@@H](n3cnc4c(N)ncnc43)[C@H](OCCOC)[C@@H]2OP(=O)(S)OC[C@H]2O[C@@H](n3cnc4c(=O)[nH]c(N)nc43)[C@H](OCCOC)[C@@H]2OP(=O)(S)OC[C@H]2O[C@@H](n3cnc4c(N)ncnc43)[C@H](OCCOC)[C@@H]2OP(=O)(S)OC[C@H]2O[C@@H](n3cc(C)c(=O)[nH]c3=O)[C@H](OCCOC)[C@@H]2O)C1=O)C(=O)O` (stereo partly drawn) [ORN3P1], for which the intracellular localization result in the assay on K562 cells [1] was “present in the cytoplasm and nuclei of K562 cells”. In the assay with myc-Lin28A, the “ubiquitination of myc-Lin28A” value was “showed a smear on the gel towards higher molecular weight”. For the same compound, the “ubiquitination of QKI” value in the assay on QKI (pDEST-Myc-QKI) is given as “showed no such effects”. Also, the “reduction of Lin28A” value with Lin28A [2] is reported as about 50%. Further, in the assay on Lin28A [3], the “LIN28A degradation by confocal microscopy” value is listed as “LIN28A is degraded”. Also, in the assay with K562 cells [4], the “intracellular presence by confocal microscopy” value was “in the cytoplasm and nuclei of K562 cells”.

(Values after publication PMC7898822, “RNA‐PROTACs: Degraders of RNA‐Binding Proteins” (Angewandte Chemie (International Ed. in English), 2020).)
